In patent US12622910B2, “Inhibitors of Bruton's tyrosine kinase and methods of their use” (Janssen Pharmaceutica NV, priority 2021, dated 2026):
Read-outs that look alike come from different tables or passages of the source.

Legend:
CB1 (h) = CB1 (h) (Homo sapiens, UniProt P21554); experiment: Receptor panel, Study 2; format: binding
Experimental: (§1) RESULTS AND DISCUSSION—Selectivity—The compound of Formula (III) was evaluated in three selectivity panels to assess the potential for off-target pharmacology (Table 8). […] The kinase off-target profile of The compound of Formula (III) was assessed in a full human wild-type panel using radiometric kinase activity assays (KinaseProfiler™ and IC50Profiler™; Eurofins Scientific) (Table 9; FIG. 23). The compound of Formula (III) inhibited 4/278 kinases >50% at 1 micromolar, identifying BTK and the three other kinases having analogous Cys residues with the potential for covalent inhibition (BMX, TEC, BLK). […]. The cellular kinase selectivity of The compound of Formula (III) was established in native Ramos B cell kinome assays (KiNativ™; ActivX) confirmed BTK as the primary target with inhibition of BLK and TEC inhibition detected (Table 10).

BLK = molecular target: T1, BLK (Homo sapiens, UniProt P51451); experiment: Eurofins KinaseProfiler/IC50Profiler radiometric kinase activity assay; format: biochemical
T1 construct: purchased Eurofins Scientific
T1 sequence (P51451 whole entry): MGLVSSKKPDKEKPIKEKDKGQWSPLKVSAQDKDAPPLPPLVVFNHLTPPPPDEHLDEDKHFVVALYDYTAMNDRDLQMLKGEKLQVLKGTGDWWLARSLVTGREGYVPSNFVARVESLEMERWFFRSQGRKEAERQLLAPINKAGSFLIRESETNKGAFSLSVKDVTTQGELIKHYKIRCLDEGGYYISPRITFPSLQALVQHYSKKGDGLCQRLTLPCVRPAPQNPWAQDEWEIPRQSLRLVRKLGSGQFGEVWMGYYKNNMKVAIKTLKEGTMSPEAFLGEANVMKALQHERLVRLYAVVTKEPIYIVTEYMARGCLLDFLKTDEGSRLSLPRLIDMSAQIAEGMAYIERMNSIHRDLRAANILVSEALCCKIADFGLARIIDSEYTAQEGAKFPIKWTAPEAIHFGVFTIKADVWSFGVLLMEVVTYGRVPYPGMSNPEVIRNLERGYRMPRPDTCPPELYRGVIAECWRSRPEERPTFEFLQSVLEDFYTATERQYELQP
Experimental: as §1

BMX = molecular target: T2, BMX (Homo sapiens, UniProt P51813); experiment: as above; format: biochemical
T2 construct: purchased Eurofins Scientific
T2 sequence (P51813 whole entry): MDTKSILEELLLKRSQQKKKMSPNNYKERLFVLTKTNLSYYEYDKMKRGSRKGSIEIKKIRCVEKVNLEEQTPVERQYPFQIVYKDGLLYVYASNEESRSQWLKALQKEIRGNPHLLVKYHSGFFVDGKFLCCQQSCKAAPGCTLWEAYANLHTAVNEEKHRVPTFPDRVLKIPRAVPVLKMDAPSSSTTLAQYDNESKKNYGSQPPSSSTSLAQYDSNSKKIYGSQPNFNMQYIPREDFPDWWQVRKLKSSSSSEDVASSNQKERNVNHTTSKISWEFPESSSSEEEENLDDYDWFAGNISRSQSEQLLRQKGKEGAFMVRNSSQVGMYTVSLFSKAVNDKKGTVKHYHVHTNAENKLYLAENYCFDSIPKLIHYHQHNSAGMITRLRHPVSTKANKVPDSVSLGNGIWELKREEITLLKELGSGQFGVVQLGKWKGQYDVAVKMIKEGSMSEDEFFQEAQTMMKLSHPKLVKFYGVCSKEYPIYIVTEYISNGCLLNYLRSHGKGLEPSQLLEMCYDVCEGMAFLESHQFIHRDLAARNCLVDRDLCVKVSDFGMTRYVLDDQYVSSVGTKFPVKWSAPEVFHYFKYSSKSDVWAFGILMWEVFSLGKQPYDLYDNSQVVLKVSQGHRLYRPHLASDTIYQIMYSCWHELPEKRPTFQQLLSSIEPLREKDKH
Experimental: as §1

BTK = BTK (Homo sapiens, UniProt Q06187); experiment: as above; format: biochemical
Sequence of BTK (Q06187 whole entry): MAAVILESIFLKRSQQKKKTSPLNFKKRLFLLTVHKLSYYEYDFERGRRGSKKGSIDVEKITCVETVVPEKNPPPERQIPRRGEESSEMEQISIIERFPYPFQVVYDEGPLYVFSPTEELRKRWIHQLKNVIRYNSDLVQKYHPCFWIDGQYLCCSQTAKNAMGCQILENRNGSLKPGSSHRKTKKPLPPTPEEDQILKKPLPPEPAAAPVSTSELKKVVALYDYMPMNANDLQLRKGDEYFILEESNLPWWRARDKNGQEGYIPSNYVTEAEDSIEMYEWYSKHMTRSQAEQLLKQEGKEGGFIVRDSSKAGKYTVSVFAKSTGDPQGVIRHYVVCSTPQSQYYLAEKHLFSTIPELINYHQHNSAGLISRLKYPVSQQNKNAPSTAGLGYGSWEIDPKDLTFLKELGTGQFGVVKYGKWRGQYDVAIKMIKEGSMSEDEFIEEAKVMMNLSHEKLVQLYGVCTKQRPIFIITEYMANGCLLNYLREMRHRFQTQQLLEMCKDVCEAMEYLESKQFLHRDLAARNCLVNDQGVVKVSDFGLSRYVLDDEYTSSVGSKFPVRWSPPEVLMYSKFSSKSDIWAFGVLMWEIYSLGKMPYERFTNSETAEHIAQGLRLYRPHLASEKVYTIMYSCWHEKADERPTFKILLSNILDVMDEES
Experimental: as §1

TEC = molecular target: T3, TEC (Homo sapiens, UniProt P42680); experiment: as above; format: biochemical
T3 construct: purchased Eurofins Scientific
T3 sequence (P42680 1-631): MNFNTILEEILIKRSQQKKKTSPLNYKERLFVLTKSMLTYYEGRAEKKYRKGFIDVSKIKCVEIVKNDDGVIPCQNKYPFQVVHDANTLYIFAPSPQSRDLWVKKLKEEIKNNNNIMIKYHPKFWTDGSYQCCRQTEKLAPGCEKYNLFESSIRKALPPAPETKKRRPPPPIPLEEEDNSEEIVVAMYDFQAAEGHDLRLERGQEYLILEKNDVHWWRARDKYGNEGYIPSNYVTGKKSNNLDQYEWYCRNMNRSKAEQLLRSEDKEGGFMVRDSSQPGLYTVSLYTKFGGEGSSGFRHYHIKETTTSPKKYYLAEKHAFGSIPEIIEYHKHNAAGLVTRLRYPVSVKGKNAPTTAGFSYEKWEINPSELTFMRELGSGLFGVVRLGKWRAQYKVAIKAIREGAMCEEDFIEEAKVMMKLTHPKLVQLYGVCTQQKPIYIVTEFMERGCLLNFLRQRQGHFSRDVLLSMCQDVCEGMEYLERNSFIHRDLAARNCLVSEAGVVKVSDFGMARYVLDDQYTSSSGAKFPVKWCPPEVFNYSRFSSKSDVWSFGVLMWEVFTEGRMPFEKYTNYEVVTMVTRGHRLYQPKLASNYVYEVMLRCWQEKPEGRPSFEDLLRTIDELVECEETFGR
Experimental: as §1

[1] = Blood-to-plasma concentration ratio; format: in vitro ADME; settings: human, fresh blood
[2] = Metabolic stability in liver microsomes; format: in vitro ADME, human
Experimental: (§2) Additional Data on Preclinical PK Profile—Protein binding of the compound of Formula (III) was studied using an equilibrium dialysis method in plasma from human, cynomolgus monkey, beagle dog, Sprague Dawley rat, CD-1 mouse, and guinea pig at 0.25, 2.5, and 25 μM. […] In human and monkey, the plasma protein binding was concentration dependent. […] Free fraction of the compound of Formula (III) in liver microsomes from various species ranged from 75.1% to 87.9% at 0.25 mg/mL and from 58.9% to 86.5% at 1.0 mg/mL (Table 17). […] In hepatocytes, the compound of Formula (III) turnover followed a similar trend, with T1/2 ranging from 75.3 minutes in monkey to 278.1 minutes in human.

[3] = Metabolic stability in liver microsomes; format: in vitro ADME, rat
Experimental: as §2

human IL-10 = experiment: Circulating human IL-10 in serum of NSG mice with OCI-LY10 tumors; format: in vivo
Description: FIG. 18 depicts circulating human IL-10 cytokine serum levels of mice treated with the compound of Formula (III). IL-10 cytokine levels are graphed as % normalized to vehicle control IL-10 levels ±SEM. Female NSG mice were implanted SC with OCI-LY10 cells on the right flank on Day 0. After tumors were established 39 days post implantation, mice were randomized into experimental groups and dosed orally with a single dose (n=5/dose level/time point). Serum samples were collected 2, 4, 8, 12, 16 and 24 hours after compound administration.
In Vivo Efficacy in ABC-DLBCL Xenograft and PDX Mouse Models of Lymphoma-To evaluate the effect of the compound of Formula (III) on NFκB signaling in vivo, we analyzed circulating human IL-10 levels in serum of NSG mice implanted with OCI-LY10 DLBCL tumors treated with 0, 1, 3, 10, 30 and 100 mg/kg compound of Formula (III) at 2, 4, 8, 12, 16 and 24 hours after single dose administration. Human IL-10 levels dropped to around 50% of vehicle control 2 hours after dosing, lowering even further after 4 hours to below 20%, 10% and 5% of vehicle control IL-10 levels in 10 mg/kg, 30 mg/kg and 100 mg/kg compound of Formula (III) treatment groups, respectively, and remaining low up to 12 hours. Some rebound to 23% of vehicle control levels for 30 mg/kg and 100 mg/kg and to 39% for the 10 mg/kg dosing group are observed 16 hours after compound administration, while IL-10 levels normalize after 24 hours (FIG. 18).

B-cell activation = experiment: Inhibition of B-cell activation after dosing (FIG. 22); format: in vivo; settings: 2, 3, and 10 mg/kg, at 8 hours
Description: Data represent mean±SEM (n=3/group).

[4] = tested on: receptors, enzymes, and ion channels; experiment: Panel of diverse proteins (54 test targets); format: binding; settings: 10 μM
Experimental: as §1

[5] = 10-point concentration response, read-out: IC50 (IC50 Profiler)

Sequence of CB1 (h) (P21554 whole entry): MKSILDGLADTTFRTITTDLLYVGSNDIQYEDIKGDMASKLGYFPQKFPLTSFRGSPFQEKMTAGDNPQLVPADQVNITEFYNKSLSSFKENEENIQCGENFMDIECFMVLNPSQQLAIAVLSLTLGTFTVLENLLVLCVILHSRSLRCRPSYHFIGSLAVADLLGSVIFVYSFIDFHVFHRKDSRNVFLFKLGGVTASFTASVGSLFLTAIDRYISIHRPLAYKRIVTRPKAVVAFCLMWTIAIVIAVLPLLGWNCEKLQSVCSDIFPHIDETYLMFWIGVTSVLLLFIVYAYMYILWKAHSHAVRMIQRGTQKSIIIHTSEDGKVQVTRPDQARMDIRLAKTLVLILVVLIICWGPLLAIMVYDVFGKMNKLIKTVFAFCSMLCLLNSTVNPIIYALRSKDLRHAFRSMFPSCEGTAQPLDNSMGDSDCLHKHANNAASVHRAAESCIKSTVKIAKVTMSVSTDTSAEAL

SMILES: C=CC(=O)N[C@H]1CCC[C@H]1NC(=O)c1sc2nccc3c2c1NC(=O)N3c1cnc(CC(C)C)cc1C (atropisomer, axis not shown) [compound of Formula (III), N-((1R,2S)-2-Acrylamidocyclopentyl)-5-(S)-(6-isobutyl-4-methylpyridin-3-yl)-4-oxo-4,5-dihydro-3H-1-thia-3,5,8-triazaacenaphthylene-2-carboxamide]
- inhibition at 10 µM (CB1 (h)): < 10%
- inhibition at 1 µM (BLK; 1 μM): 54%
- IC50 (BLK; [5]): 3.13 µM
- inhibition at 1 µM (BMX; 1 μM): 92%
- IC50 (BMX; [5]): 0.172 µM
- inhibition at 1 µM (BTK; 1 μM): 98%
- IC50 (BTK; [5]): 0.558 µM
- inhibition at 1 µM (TEC; 1 μM): 88%
- IC50 (TEC; [5]): 0.303 µM
- blood plasma ratio at 1 μM [1]: 0.67
- Extraction Ratio, liver microsomes ([2]; Human): 0.63
- microsomal CLint ([2]; human, liver microsomes): 31.1 µL/min/mg
- half-life ([2]; human, liver microsomes, read-out: T1/2, liver microsomes): 22.3 min
- Extraction Ratio, liver microsomes ([3]; Rat): 0.58
- microsomal CLint ([3]; rat, liver microsomes): 53.8 µL/min/mg
- half-life ([3]; rat, liver microsomes, read-out: T1/2, liver microsomes): 12.9 min
- human IL-10, % of vehicle control (human IL-10; 10 mg/kg, 4 hours): below 20%
- human IL-10, % of vehicle control (human IL-10; 10 mg/kg, 16 hours): 39%
- human IL-10, % of vehicle control (human IL-10; 30 mg/kg, 4 hours): < 10%
- human IL-10, % of vehicle control (human IL-10; 30 mg/kg, 16 hours): 23%
- human IL-10, % of vehicle control (human IL-10; 100 mg/kg, 4 hours): < 5%
- human IL-10, % of vehicle control (human IL-10; 100 mg/kg, 16 hours): 23%
- human IL-10, % of vehicle control (human IL-10; 2 hours after single oral dose): around 50%
- inhibition ratio of B-cell activation (B-cell activation): ≥ 78%
- binding in off-target panel [4]: did not bind >50% at 10 μM for any of the 54 test targets
